Columns and labels:
physchem = format: physicochemical
Protocol: (§1) A Whatman C-18 column (4.6 mm×108 mm) was connected to a Spectra-Physics component system consisting of a SP 8810 precision isocratic pump, Rheodyne 7125 injector (20 μL injection volume), SP 8450 UV/VIS variable wavelength detector (230 nm), and SP 4290 integrator. The system was operated at ambient temperature. The mobile phase consisted of acetonitrile, acetic acid and water (60:0.1:40). At a flow rate of 1.0 mL/minute, the retention times for the test compounds were 4.74 minutes for Compound A, 5.84 minutes for Compound B, 6.93 minutes for Compound C, and 5.72 minutes for Compound D.
(§2) HPLC peak area and peak height were used as a measure of the concentration of the test compounds and plotted against time to evaluate the disappearance rates of the compounds. The stability was determined by measuring the pseudo-first order rate constant (kobs in min^-1) or half-life (t1/2 in min) of disappearance of the test compound in buffer. […].
The stabilities of test compounds A, B, C, and D, were tested in buffer solutions in the pH range of 4.0 to 9.0. A 0.1 mL portion of each compound at a concentration of 1 mM was mixed with 10 mL phosphate buffer (made by combining 0.05 M of NaH2 PO4 and 0.05 M of Na2 HPO4 with 0.05 M of NaCl) to give a final concentration of 0.01 mM. The mixtures were incubated at 37° C., and samples were taken and injected in the HPLC system at appropriate time intervals. pH profiles of each test compound are shown in TABLE III below. […]

Stability in rat blood = format: in vitro ADME; settings: rat blood, 0.1 mM, 37° C.; read-out: Half-life (t1/2), Blood
Protocol: as §1, §2
(§3) A 0.2 mL aliquot of stock solution (1 mM) of each of the test compounds A, B, C, and D, was added to 2 mL of each biological media (whole heparinized rat blood, 20% rat liver homogenate, and 6-volume diluted lung homogenate in isotonic buffer of pH 7.40 made by combining 0.05 M of Na2 HPO4 and 0.05 M of NaH2 PO4 with 0.05 M of NaCl), which was kept in a 37° C. water bath, to obtain a final concentration of 0.1 mM in each biological medium. Samples of 0.1 mL were taken at appropriate time intervals for 2 hours (at 0, 3, 5, 10, 20, 40, 60, 90 and 120 minutes) and mixed with 0.2 mL of acetonitrile containing 5% DMSO. Each mixture was centrifuged and the supernatant was injected in the HPLC.

[1] = Stability in liver homogenate; format: in vitro ADME, rat; settings: 20% rat liver homogenate, 0.1 mM, 37° C.; read-out: Half-life (t1/2), Liver
Protocol: as §1, §2, §3

[2] = Stability in lung homogenate; format: in vitro ADME; settings: rat; 6-volume diluted lung homogenate, 0.1 mM, 37° C.; read-out: Half-life (t1/2), Lung
Protocol: as §1, §2, §3

[3] = Stability in human plasma; format: in vitro ADME; settings: human plasma, 100 μM, 37° C.
Protocol: (§4) A Waters NOVA-PAK phenyl column was connected to a Spectra-Physics component system consisting of a SP 8810 precision isocratic pump, a Rheodyne 7125 injector (injection volume 20 μL), an SP 8450 UV/VIS variable wavelength detector (operated at 254 nm) and a SP 4270 integrator. […]. The retention times of compound of the invention J and its metabolities L and M were 8.64, 2.70 and 2.45 minutes, respectively. The retention times of compound of the invention I and its metabolites N and 0 were 5.84, 2.70 and 1.81 minutes, respectively. The retention time of cortienic acid was 1.00 minute.
(§5) Freshly collected human or rat plasma was used. An aliquot of 10 mM test compound in ethanol solution was added to prewarmed (37° C.) plasma to yield a final concentration of 100 μM. At appropriate time intervals, samples (0.1 mL) were removed and mixed with 0.2 mL of 5% dimethylsulfoxide/acetonitrile solution. Mixtures were centrifuged and supernatants were analyzed by HPLC. The pseudo-first order rate constant of the disappearance of compound in the biological media was determined by linear regression analysis from the plot of log peak area and peak height versus time.
(§6) Stability was evaluated by the pseudo first-order rate constant (k, hr^-1) and half-life (t1/2, hr) of the disappearance of the test compound in the media.

Stability in rat plasma = format: in vitro ADME; settings: rat plasma, 100 μM, 37° C.
Protocol: as §4, §5, §6

[4] = tested on: forearm of a human volunteer; assay: Human vasoconstriction test; format: in vivo; design: key: 0 = normal skin, 4 = very intense pallor; settings: 10 mM

CCOC(=O)[C@@]1(OC(=O)C(Cl)Cl)CC[C@H]2[C@@H]3CCC4=CC(=O)C=C[C@]4(C)[C@H]3[C@@H](O)C[C@@]21C [Compound B, Ethyl 17α-dichloroacetoxy-11β-hydroxyandrosta-1,4-dien-3-one-17β-carboxylate]
half-life (physchem; aqueous phosphate buffer, pH 4.5): > 2880 min | half-life (physchem; aqueous phosphate buffer, pH 6.56): 1000 min | half-life (physchem; aqueous phosphate buffer, pH 7.4): 305 min | half-life (physchem; aqueous phosphate buffer, pH 8.08): 52 min | half-life (physchem; aqueous phosphate buffer, pH 9): 8.67 min | half-life (physchem; buffer, pH 7.4): 305 min | half-life at 100 µM (Stability in rat blood): 77.4 min | half-life at 100 µM [1]: 18.8 min | half-life at 100 µM [2]: 137 min | k (pseudo first-order rate constant) [3]: 0.138 h⁻¹ | half-life at 100 µM ([3]; read-out: t1/2 (converted)): 302 min | k (pseudo first-order rate constant) (Stability in rat plasma): 0.136 h⁻¹ | half-life at 100 µM (Stability in rat plasma; read-out: t1/2 (converted)): 305 min | Vasoconstriction activity ([4]; 1 hour after patch removal): 3 | Vasoconstriction activity ([4]; 8 hours after patch removal): 4 | Vasoconstriction activity ([4]; 17 hours after patch removal): 4 | Vasoconstriction activity ([4]; 24 hours after patch removal): 4

Reference: US5981517A, “Androstene derivatives” (priority 1997, dated 1999)
